Series [1] in a line: In situ determination of apparent pKa using TNS fluorescence titration.
Description: In situ pKa measurements were made using the pH sensitive fluorescent probe TNS, using a modification of the approach previously published in Bailey, A. L. and Cullis, P. R., Biochemistry 33:12573-12580 (1994).
Titrations of surface charge as a function of pH can then be used to determine the apparent pKa (hereafter referred to as pKa) of constituent lipids (Cullis, P. R., et al., Chem Phys Lipids 40:127-144 (1986)).
The format of series [2] is in vivo. The following applies: rats. Here is the method:
(§1) Data was recorded as % Change in Body Weight.
Histopathology results for livers obtained from rats treated with 91 mg/kg (“5” mg/kg) were normal.

In series [3] the test system is Factor VII (FVII). The following applies: for FVII ED50: Table 11. From the text:
It is well established that in vivo RNAi silencing of specific hepatocyte proteins can be achieved following intravenous (i.v.) administration of siRNA's encapsulated in, or associated with, select nanoparticles designed for intracellular delivery. […] In this Example, rational design in combination with in vivo screening were applied to systematically modify the structure of DLinDMA and identify molecular features that enhance or reduce cationic lipid potency. More than 30 lipids were synthesized and incorporated into nucleic acid-lipid particles, i.e., lipid nanoparticles (LN) encapsulating an siRNA (LN-siRNA) targeting Factor VII (FVII), a blood clotting component synthesized and secreted by hepatocytes that is readily measured in serum. LN-siRNA systems were prepared using the same process, lipid molar ratios and particle size to minimize effects on activity resulting from formulation characteristics other than the cationic lipid. Each formulation was administered as a single bolus injection over a range of doses enabling an estimate of the siRNA dose required to reduce FVII serum protein concentrations by 50% after 24 h (ED50).
FVII activity was evaluated in FVII siRNA-treated animals at 24 hours after intravenous (bolus) injection in C57BL/6 mice or 48 hours after intravenous (bolus) injection in SD rats. Six to 8 week old, female C57Bl/6 mice were obtained from Charles River Laboratories and acclimated for one week prior to use in studies. Animals were held in a pathogen-free environment and all procedures involving animals were performed in accordance with the guidelines established by the Canadian Council on Animal Care.
LN-siRNA systems containing Factor VII siRNA were diluted to the appropriate concentrations in sterile phosphate buffered saline immediately prior to use, and the formulations were administered intravenously via the lateral tail vein in a total volume of 10 ml/kg. After 24 h, animals were anaesthetised with Ketamine/Xylazine and blood was collected by cardiac puncture and processed to serum (Microtainer Serum Separator Tubes; Becton Dickinson, Franklin Lakes, N.J., USA). Serum was tested immediately or stored at −70° C. for later analysis for serum Factor VII levels.
FVII was measured using a commercially available kit (Biophen FVII Kit™; Aniara Corp., Mason, Ohio), following the manufacturer's instructions at a microplate scale. FVII reduction was determined against untreated control animals, and the results were expressed as % Residual FVII. Five dose levels (0.1, 0.3, 0.5, 1.0, and 3.0 mg/kg) were typically used.
Serum Factor VII levels were determined using the colorimetric Biophen VII assay kit (Anaira, USA). Briefly, serially diluted pooled control serum (200%-3.125%) and appropriately diluted plasma samples from treated animals were analyzed using the Biophen VII kit according to manufacturer's instructions in 96-well, flat bottom, non-binding polystyrene assay plates (Corning, Corning, N.Y.) and absorbance at 405 nm was measured. A calibration curve was generated using the serial diluted control serum and used to determine levels of Factor VII in serum from treated animals.
Initial studies were performed in eight to 10 week old, female C57BL/6 mice in two stages. In the first stage, the activity associated with the benchmark lipid DLinDMA was compared to the activity associated with modified forms of DLinDMA.

In series [4] the test system is Factor VII (FVII). Kind of series: In vivo FVII activity of nucleic acid-lipid formulations in rats. The settings on record: PEG-C-DOMG as PEG-lipid. Set-up: species or system SD rats. The procedure: The ability of various nucleic acid-lipid formulations comprising different cationic lipids was further explored in mice and rats. Each of the tested nucleic acid-lipid formulations was prepared as described above using PEG-C-DOMG as the PEG-lipid. The formulations initially tested (which included either DLin-K-DMA, DLin-K-MPZ, DLin-K-C2-DMA, or DLin-K-C4-DMA) reduced residual FVII levels in both mice (FIG. 3) and rats (FIG. 4). […] The activity of the DLin-K-C2-DMA formulation was approximately 2-3-fold greater than the DLin-K-DMA formulation in mice, and approximately 10-20-fold greater than the DLin-K-DMA formulation in rats. A comparison of FVII reduction in mice and rats using the DLin-K-DMA formulation or the DLin-K-C2-DMA formulation is shown in FIG. 5.

Series [5] is described as follows: Bilayer-to-hexagonal HII transition temperature (TBH) in equimolar mixtures with DSPS. The format is physicochemical. The following applies: for HII transition temperature: equimolar with DSPS, pH 4.8, 31P NMR and DSC. The source says:
Both techniques gave similar results.

The next series relates to transthyretin (TTR). Kind of series: TTR silencing by KC2-SNALP-formulated siTTR in non-human primates (liver TTR mRNA). The format is in vivo, Cynomolgus monkeys. The following applies: Macaca fascicularis, iv, single 15 minute i.v. infusion; 48 hours post-administration. The source says:
FIGS. 9A-B illustrate the efficacy of KC2-SNALP formulations. FIG. 9A is a graph showing the improved efficacy of KC2-SNALP versus a DLin-K-C2-DMA PFV formulation in mice. The in vivo efficacy of KC2-SNALP (◯) was compared to that of the un-optimized DLin-KC2-DMA PFV formulation (●) in the mouse FVII model. Data points are expressed as a percentage of PBS control animals and represent group mean (n=5)±s.d. FIG. 9B depicts the efficacy of KC2-SNALP in non-human primates. Cynomolgus monkeys (n=3 per group) received either 0.03, 0.1, 0.3 or 1 mg/kg siTTR, or 1 mg/kg siApoB formulated in KC2-SNALP or PBS as 15 minute intravenous infusions (5 mL/kg) via the cephalic vein. Animals were sacrificed at 48 hours post-administration. TTR mRNA levels relative to GAPDH mRNA levels were determined in liver samples. Data points represent group mean±s.d. *=P<0.05; **=P<0.005.
Given the promising activity and safety profile observed in rodents in the studies described in Example 17, studies were performed in non-human primates to investigate the translation of DLin-KC2-DMA activity in higher species. For these studies, transthyretin (TTR), a hepatic gene of high therapeutic interest, was targeted. […]
Tissues were harvested at 48 hours post-administration, and liver mRNA levels of TTR were determined. […]

The nature of series [6]: Tolerability of DLin-K-C2-DMA lipid particles in mice. The format is in vivo. Here is the method: as §1
A short description of series [7]: Pharmacokinetic and liver analysis of Cy-3 labeled siRNA in LN-siRNA systems. The format is in vivo. The source says:
A fluorescently labeled siRNA (Cy-3 labeled luciferase siRNA, Alnylam Pharmaceuticals) was used to measure the siRNA content in plasma and liver after iv administration of LN-siRNA systems. The measurements were done by first extracting the Cy3-siRNA from the protein-containing biological matrix and then analyzing the amount of Cy-3 label in the extract by fluorescence. Two extraction methods were used, a chloroform/methanol mixture for the plasma samples and a commercial phenol/chloroform mixture (Trizol® reagent) with the tissue samples.
For plasma, blood was collected in EDTA-containing Vacutainer tubes and centrifuged at 1000×g for 10 min at 4-8° C. to isolate the plasma. The plasma was transferred to an eppendorf tube and either assayed immediately or stored in a −30° C. freezer. An aliquot of the plasma (100 μL maximum) was diluted to 500 μL with PBS (145 mM NaCl, 10 mM phosphate, pH 7.5), methanol (1.05 mL and chloroform (0.5 mL) was added, and the sample vortexed to obtain a clear, single phase solution. Water (0.5 mL) and chloroform (0.5 mL) was then added and the resulting emulsion sustained by mixing periodically for a minimum of 3 minutes. The mixture was centrifuged at 3000 rpm for 20 minutes and the top aqueous phase containing the Cy-3-label transferred to a new test tube. The fluorescence of the solution was measured using an SLM Fluorimeter at an excitation wavelength of 550 nm (2 nm bandwidth) and emission wavelength of 600 nm (16 nm bandwidth). A standard curve was generated by spiking aliquots of plasma from untreated animals with the Cy-3-siRNA containing formulation (0 to 15 μg/mL), and the sample processed as indicated above.
For liver, sections (400-500 mg) of tissue from saline-perfused animals was accurately weighed and homogenized in 1 mL of Trizol using Fastprep tubes. An aliquot of the homogenate (typically equivalent to 50 mg of tissue) was transferred to an eppendorf tube and additional Trizol added to 1 mL final. Chloroform (0.2 mL) was added, and the solution was mixed and incubated for 2-3 min before being centrifuged for 15 min at 12,000×g. An aliquot (0.5 mL) of the top Cy-3-containing aqueous phase was diluted with 0.5 mL of PBS and the fluorescence of the sample measured as described above.
The correlation between levels of siRNA delivered to the liver and FVII reduction was determined by encapsulating Cy-3 labeled siRNA in the selection of LN-siRNA systems covering a spectrum of in vivo activities shown in Table 8. Cy-3 fluorescence was measured in plasma and liver tissue 0.5 and 3.0 h post injection.

The mark [8] stands for this setting: siRNA dose reducing serum FVII protein by 50% at 24 h, PFV LN-siRNA 40/10/40/10.

“And” between values parts separate entries of the source, which are not always exact repeats. Equal entries are not always repeated. Where two headings read alike, the source gives them in different places.

Usually pKa stands for the pH at which an ionisable group is half protonated. Broadly, the ED50 is the midpoint of the dose-response relation.

For the compound `CCCCC/C=C\C/C=C\CCCCCCCCC1(CCCCCCCC/C=C\C/C=C\CCCCC)OCC(CCN(C)C)O1` (stereo not drawn) [DLin-K-C2-DMA, 2,2-Dilinoleyl-4-(2-dimethylaminoethyl)-[1,3]-dioxolane], the pKa in series [1] and in series [1] (nucleic acid-lipid particles containing the cationic lipid) was 6.4 in each case. For the same compound, the “lipid dose as low as which significant increases in ALT/AST were seen” value in series [2] is 182 mg/kg lipid. The liver histopathology entry in series [2] (91 mg/kg) was “normal”; in series [2] (182 mg/kg), “mild to moderate hepatocellular necrosis, centrilobular, and hepatocellular vacuolization”. Besides, the “clinical observations and liver appearance” value in series [2] (91 mg/kg lipid) was “appeared normal and had normal livers”; in series [2] (364 mg/kg lipid), “hunched, slower movement, quinting eyes, scruffy coats, piloerection, red/orange uring, with pale and some mottling livers”. Further, the clinical observations result in series [2] (182 mg/kg lipid) is “slower movement and a scruffy coat”. For the same compound, the mortality result in series [2] (364 mg/kg lipid) is reported as “one died”; in series [6] (mouse, in vivo), “no mice died”. The body weight result in series [2] (24 hours after i.v. treatment) and in series [6] (mice) was “dose-dependent loss of weight” throughout. The ED50 in the series with Factor VII (FVII) [3] (Table 6, siRNA dose reducing serum FVII protein by 50% at 24 h, PFV LN-siRNA 40/10/40/10) was about 0.1 mg/kg; with Factor VII (FVII) [3] (setting [8]), about 0.1 mg/kg; with transthyretin (TTR) it was 0.3 mg/kg. Further, in the series on Factor VII (FVII) [3], the “FVII ED50” value is recorded as about 0.1 mg/kg. In addition, in the series on Factor VII (FVII) [3] (mice), the “fold more potent / greater activity than DLin-K-DMA” value was 4 fold and 2-3 fold. For the same compound, the “fold difference in in vivo activity between DLin-K-C2-DMA and DLin-K-C4-DMA” value in the series with Factor VII (FVII) [3] (mouse, in vivo) is given as over 30 fold. Besides, in the series on Factor VII (FVII) [3] (reducing serum FVII protein, mouse, head-to-head), the “fold more potent than the DLinDMA benchmark” value is given as 10 fold. Also, in the series with Factor VII (FVII) [3] (rodents), the “siRNA dose as low as which in vivo activity was exhibited” value turned out to be 0.01 mg/kg. The “encapsulated siRNA sufficient to knockdown serum FVII protein by 50%” value in the series with Factor VII (FVII) [3] (single i.v. bolus to a mouse, within 24 h, 40 mole % cationic lipid) was about 100 picomoles. Moreover, the “fold greater activity than the DLin-K-DMA formulation” value with Factor VII (FVII) [4] is reported as 10-20 fold. Besides, the “TBH lower than that for DLinDMA” value in series [5] is 7 °C. Also, in series [5], the HII transition temperature worked out at 20 °C. The “increase in ALT-AST” value in series [6] (mice, approximately 1100 mg/kg lipid) is “greater than 10 fold”. Further, the clinical signs entry in series [6] (mice, except at greater than 1300 mg/kg (hunched, slower movement, scruffy coat)) is listed as “no obvious clinical signs”.
Turning to “1,2-Dilinoleoyl-3-dimethylaminopropane [DLinDAP]”, in series [1] (in situ in preformed vesicles, TNS fluorescence titration, Table 11), the “Apparent pKa” value was determined as 5.7. In addition, the “Liver Cy-3 siRNA” value in series [7] (0.5 h post injection) was 20.5 % injected dose; in series [7] (3.0 h post injection), 16.5 % injected dose. In addition, the “Plasma Cy-3 siRNA” value in series [7] (0.5 h post injection) was 46.6 % injected dose; in series [7] (3.0 h post injection) it was 3.3 % injected dose. Further, the ED50 is 40 to 50 mg/kg with Factor VII (FVII) [3] (Table 4, siRNA dose reducing serum FVII protein by 50% at 24 h, PFV LN-siRNA 40/10/40/10); 12 to 25 mg/kg with Factor VII (FVII) [3] (Table 8, FVII ED50 of the LN-siRNA system); 12 to 25 mg/kg with Factor VII (FVII) [3] (setting [8]). For the same compound, the “FVII ED50” value with Factor VII (FVII) [3] is listed as over 25 mg/kg. Also, the HII transition temperature in series [5] is 26 °C.

The values are drawn from patent publication US10653780B2, “Amino lipids and methods for the delivery of nucleic acids” (ARBUTUS BIOPHARMA CORPORATION, priority 2008, dated 2020).
